Measured values published in patent US20030073672A1, “Method for treating allergies using substituted pyrazoles” (priority 2001, published 2003).

Columns and labels:
[1] = test system: human T cell proliferative responses to house dust mite extracts (Der p, Der f) in PBMC; experiment: Ex vivo human T cell-proliferation assay, house dust mite extracts; type: cell-based; conditions: seven days; for human T cell proliferative responses to Der f: PBMC from an allergy donor, Der f extract, titrated doses of compound, FIG. 3
Excerpt: This proliferation consisted primarily of allergen-specific CD4 T cells.

[2] = test system: T cell proliferative responses induced by ConA in PBMC; experiment: Ex vivo human T cell-proliferation assay, ConA control; type: cell-based; conditions: PBMC of allergic donors, a pan-T cell mitogen
Excerpt: Reagents. […] Cell culture.

[3] = test system: invariant chain (Ii) degradation, p10Ii fragment, in PBMC from human blood; experiment: Monitoring cathepsin S inhibition in human blood (p10Ii Western blot); type: cell-based; conditions: incubation for 24 h, SDS-PAGE / Western blot
Experimental: The effect of in vivo administration of cathepsin S inhibitors, in a clinical trial setting, can be monitored by measuring accumulation of an intermediate degradation product of invariant chain (Ii), i.e. the p10Ii fragment, in blood of dosed subjects. After administration of a cathepsin inhibitor for a certain period of time, for example, between 0.01 and 50 mg/kg/day, to result in a blood concentration of between 1 nM-10 μM, for 16-30 h, blood is drawn and white blood cells are purified, e.g. either by lysis of red blood cells or by a Ficoll-Hypaque gradient centrifugation. Whole cell lysates of WBC are then made and analyzed by either a Western blot assay or an ELISA assay. For the Western blot assay, cell lysates are first resolved on SDS-PAGE gels. After transferring to nitrocellulose membranes, Ii and its intermediate degradation products, including the p10Ii, can be detected using a mouse mAb against Ii, e.g. Pin.1, or rabbit polyclonal antibodies specific for the C-terminus of the p10Ii fragment or against the entire p10Ii fragment. For ELISA assay, a pair of antibodies against Ii, including Pin1.1, and a rabbit polyclonal antibody or a mouse monoclonal antibody specific for p10Ii, can be used. The same assay can also be applied to monitor the effect of cathepsin S inhibitors in vivo in animal studies, for example in monkeys, dogs, pigs, rabbits, guinea pigs, and rodents.

[4] = test system: human T cell proliferative responses to ragweed extracts (short, giant) in PBMC; experiment: Ex vivo human T cell-proliferation assay, ragweed extracts; conditions: PBMC of ragweed-allergic donors, short and giant ragweed extracts, FIG. 2B
allergic volunteers = experiment: Monitoring in vivo inhibition of allergenic response (cutaneous reactions); conditions: allergens deposited subcutaneously

Structure (SMILES)	T cell proliferation (3H-thymidine incorporation) induced by HDM extracts ([1]; PBMC of HDM-allergic donors, Der p or Der f extracts, FIG. 1B)	T cell proliferative responses induced by ConA [2]	p10Ii fragment accumulation (block in the degradation of Ii) [3]	T cell proliferation (3H-thymidine incorporation) induced by ragweed extracts [4]	human T cell proliferative responses to Der f [1]	immediate weal and flare response (allergic volunteers; 15 min)	late phase response (induration) (allergic volunteers; 6 h and 24 h)
CC(C)C[C@H](NC(=O)N1CCOCC1)C(=O)N[C@H](/C=C/S(=O)(=O)c1ccccc1)CCc1ccccc1 [LHVS, 4-morpholinecarboxamide, N-[(1S)-3-methyl-1-[[[(1S,2E)-1-(2-phenylethyl)-3-(phenylsulfonyl)-2-propenyl]amino]carbonyl]butyl]-]	strongly inhibited	not affected	the p10Ii fragment was seen	strongly inhibited	–	–	–
N#Cc1ccccc1N1CCN(CC(Cn2nc(-c3ccc(I)cc3)c3c2CCN(C(N)=O)C3)OC(N)=O)CC1 (stereo not shown) [Example 11, Carbamic acid 1-[5-carbamoyl-3-(4-iodo-phenyl)-4,5,6,7-tetrahydro-pyrazolo[4,3-c]pyridin-1-ylmethyl]-2-[4-(2-cyano-phenyl)-piperazin-1-yl]-ethyl Ester]	–	but not ConA	–	–	inhibition	–	–
C[C@]12C=CC(=O)C=C1CC[C@@H]1[C@@H]2C(=O)C[C@@]2(C)[C@H]1CC[C@]2(O)C(=O)CO [Prednisone, prednisone]	–	–	–	–	–	inhibit both the immediate and the late phase responses	inhibit both the immediate and the late phase responses
CS(=O)(=O)N1CCc2c(c(-c3ccc(I)cc3)nn2CC(O)CN2CCN(c3ccccc3C#N)CC2)C1 (stereo not shown) [Example 36, 2-(4-{2-Hydroxy-3-[3-(4-iodo-phenyl)-5-methanesulfonyl-4,5,6,7-tetrahydro-pyrazolo[4,3-c]pyridin-1-yl]-propyl}-piperazin-1-yl)-benzonitrile]	–	but not ConA	–	–	inhibition	–	–
